The source of these data is article PMC8414802, “Hair Cell Generation in Cochlear Culture Models Mediated by Novel γ-Secretase Inhibitors” (Frontiers in Cell and Developmental Biology, 2021).

The experiment relates to hair cell genes (Atoh1, Pou4f3, Myo7a) and supporting cell gene (Hes5) in cochlear organoids. Description: Cochlear organoids from Atoh1-nGFP mice, gene expression by RT-PCR. It counts as cell-based. To be noted: mouse organoids, 5 μM, end of differentiation, vs untreated. As for the experimental part: On day 0, the cochlear sensory epithelium was dissected and the OC was separated from the modiolus and stria vascularis, as described above, from either Wistar rat pups (P2), Lgr5-GFP mice (P0–P2) or Atoh1-GFP mice (P0–P2). To separate the sensory epithelial layer from underlying mesenchyme and neurons, the OC was placed in a 100 μl drop of Matrisperse Cell Recovery Solution (Corning) for 1 h at RT, then delaminated with the aid of forceps. Gentle enzymatic dissociation of hair cells and supporting cells followed with 100 μl drop of TrypLE (Gibco), 20 min at 37°C, then mechanical trituration in DMEM/F12. The cell suspension was centrifuged for 5 min at 500 g at 4°C and resuspended in DMEM/F12 medium supplemented with B27 and N2 (Invitrogen), EGF (50 ng/ml), bFGF (50 ng/ml), IGF (25 ng/ml), CHIR99021 (GSK-3β inhibitor, 3 μM, Merck), valproic acid (HDAC inhibitor, 1 mM, Sigma), 2-phospho-L-ascorbic acid (280 μM, Stemcell Technologies) and 0.01% ampicillin (Sigma). Cells were plated at 2,000 cells per well on 96 wells plate (Corning Costar; ultra-low attachment, round-bottom) to allow aggregation at 37°C. On day 1, Matrigel (GF-depleted, Corning; 2% stock) was added to a final concentration of 0.18 mg/ml. On day 3, cells were transferred to 24 wells plate (ultra-low attachment; Corning Costar), pooling the organoid aggregates from 4 to 5 wells (96 well-plate) to one 24-well, culturing at 37°C and exchanging half medium and Matrigel every other day, On day 10, organoids were differentiated by replacing medium with DMEM/F12 supplemented with B27, N2, CHIR99021 (3 μM), and Notch inhibitors CPD3 (5 μM) or LY411575 (5 μM), and culture was continued as above for another 10 days.
Cells or tissue were lysed using RLT Lysis Buffer (Qiagen) and high purity RNA was prepared on the MagNA Pure instrument using MagNA Pure 96 Cellular RNA LV Kit (Roche). […] Normalized to Tbp, relative gene expression fold-change was quantified and compared between experimental and control conditions by ΔΔCt calculation. […]

Structures are written as SMILES.

Compound `COc1ccc2c(c1)N1CCC(C)(C)C1=CC(=O)[C@H]2NC(=O)[C@H](C)NC(=O)CCC(F)(F)F` [CPD3] gave an Atoh1 expression of 8.07 ± 5.6 fold, a Myo7a expression of 9.9 ± 10.5 fold and a Pou4f3 expression of 12.65 ± 11.07 fold.
